Data as given in US20050070606A1, “Pharmaceutical agent for mitochondrial disorders” (Ajinomoto Co., Inc., priority 2002, published 2005).

Key:
[1] = system: mRNAs of the proteins involved in the TCA cycle of liver mitochondria and the ATP generation in the electron transfer system; experiment: Expression of the genes for mitochondrial ATP generation-associated proteins (Taqman-PCR) in liver of rats after partial 70% hepatectomy; assay type: in vivo, rat; conditions: male F344 rats after partial 70% hepatectomy; L-alanine 2 g/10 ml/kg orally 18 and 21 hours after hepatectomy; liver at 24 hours; compared with the non-administered group; FIG. 1
Experimental: Male F344/DvCrj (Fischer) rats (age 6 weeks and body weight of 120 g) were preliminarily fed with CRF-1 (Oriental Yeast) and water for 6 weeks. Subsequently, the rats were divided in two groups of equal body weight. According to the Higgins-Anderson method (see Higgins, G. M. and Anderson, R. M., 1931, Arch. Pathol. 12: 186-191), partial 70% hepatectomy (left lobe, intermediate lobe) was performed. 18 and 21 hours after the partial hepatectomy, L-alanine at 2 g/10 ml/kg body weight in aqueous 0.3% carboxymethyl cellulose solution was administered orally (group 1), while only the aqueous 0.3% carboxymethyl cellulose solution was administered to the control group (group 2). 24 hours after the partial hepatectomy, anatomy was performed. The rats were killed by exsanguination under anesthesia and then the liver was resected and weighed. Subsequently, the liver was frozen and stored for assaying mRNA expression by the Taqman-PCR method.
To homogenize the liver, 10 ml ISOGEN (Nippon Gene) was added per 1 g of rat liver. […]
The Taqman PCR reactions were performed in duplicate to calculate the cycle time (CT) exceeding the threshold. […] By the following formula, the relative expression level was determined: Relative expression level=2^(30-CT sample)
Further, the relative value of the expression level of each gene was determined when the relative expression level of β-actin was defined as 1000.

[2] = system: mitochondrial membrane potential; experiment: Assaying mitochondrial membrane potential (JC-1 fluorescence) in liver mitochondrial suspension; assay type: biochemical; conditions: rat liver mitochondria 2 μg; various concentrations of L-alanine; excitation 490 nm, emission 590 nm; FIG. 2
Experimental: A male SD (IGS) rat of age 8 weeks was killed by exsanguination under ether anesthesia and then the liver was resected and washed twice with 1×Extraction Buffer A (10 mM HEPES (2-[4-(2-hydroxyethyl)-1-piperazinyl]ethanesulfonic acid, pH 7.5, 200 mM mannitol, 70 mM sucrose, 1 mM EGTA (ethylene glycol bis(β-aminoethyl ether)-N, N,N,N-tetraacetic acid). The liver was subsequently cut into a piece of about 100 mg and weighed, which was then cut into smaller pieces in a 5-ml tube.
A 10-fold volume of 1×Extraction Buffer A (containing 2 mg/ml albumin) was added to the tube and the liver was homogenized at a low speed on ice (15 seconds). The resulting homogenate was transferred into an Eppendorf tube for centrifugation at 600 g at 4° C. for 5 minutes. The supernatant was transferred to a new tube for centrifugation at 11,000 g and 4° C. for 10 minutes. After the supernatant was discarded, the precipitate was suspended in a 10-fold volume of 1×Extraction Buffer A. The procedure from centrifugation at 600 g and 4° C. for 5 minutes to centrifugation at 11,000 g and 4° C. for 10 minutes was repeated. […]
The resulting suspension was defined as the mitochondrial suspension for the following experiments. […] For assaying fluorescence intensity (excitation at 490 nm; emission at 590 nm), 2 μl of JC-1 (1 μg/ml) was added and incubated at ambient temperature for 7 minutes.

[3] = target: T1, COX (cytochrome C oxidase) (Rattus norvegicus, UniProt P00406+P05503); experiment: Assaying COX (cytochrome C oxidase) activity in liver mitochondrial suspension; assay type: biochemical; conditions: rat liver mitochondria 2.5 μg, reduced cytochrome c, FIG. 3
T1 construct: from tissue; host or cells: mitochondrial suspension (liver according to the earlier reading)
T1 sequence (P00406 whole entry, other chains not shown): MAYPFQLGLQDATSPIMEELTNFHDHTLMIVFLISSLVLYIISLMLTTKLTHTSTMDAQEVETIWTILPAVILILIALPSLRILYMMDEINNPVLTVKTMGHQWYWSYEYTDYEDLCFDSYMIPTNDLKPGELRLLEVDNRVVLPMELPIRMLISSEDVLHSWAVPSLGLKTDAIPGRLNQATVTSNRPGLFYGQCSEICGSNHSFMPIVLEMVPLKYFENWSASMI
Experimental: As described in Example 2, a mitochondrial suspension was prepared and adjusted to 0.1 mg/ml. 25 μl (2.5 μg) of mitochondria was blended with 950 μl of an assay buffer (10 mM Tris-HCl, pH 7.0, 120 mM KCl), to which various concentrations of L-alanine were added. 50 μl of cytochrome c (0.22 mM) reduced with 10 mg/ml sodium hydroxysulfite was added, and the resulting mixture was inversed and mixed together to start reaction. Immediately, the absorbance (550 nm) was counted continuously for one minute with a spectrophotometer, to record the decrease of the absorbance.

## C[C@H](N)C(=O)O [L-alanine]
[1]
  mRNAs of the proteins involved in the TCA cycle of liver mitochondria and the ATP generation in the electron transfer system: significantly increased
[2]
  fluorescence intensity of JC-1 (mitochondrial membrane potential): increased in an L-alanine concentration-dependent manner
[3]; absorbance at 550 nm
  concentration from which COX activity was increased: ≥ 2.5 mM
[3]; decrease of absorbance at 550 nm for one minute, various concentrations of L-alanine
  COX activity: increased the COX activity in a concentration-dependent manner
